Data as given in US20050096370A1, “Method for inhibiting tumor angiogenesis and tumor growth” (Bizbiotech Co., Ltd., priority 2003, published 2005).

Key:
VEGF = VEGF protein ELISA in Hep3B cell-conditioned medium; assay type: cell-based, human; conditions: Hep3B cells, hypoxic, 24 hours, versus untreated hypoxic cells (P<0.001)
Method: FIG. 3 is a histogram showing the amount of VEGF protein. […] The VEGF concentrations were quantified by comparison with a series of VEGF standard samples included in the assay kit. VEGF level in each experiment was measured twice. Bars represent the mean of four separate experiments with the 95% confidence interval. * denotes statistical significance compared to control supernatants from cells cultured under normoxic conditions (P<0.001); # denotes statistical significance compared to control supernatants from cells cultured under hypoxic conditions (P<0.00 1).
Immunoblotting was used to detect HIF-1 protein in cultured cells, as described (Chun et al., Biochem Pharmacol 2001 61:947-954). […] To quantify mRNAs for HIF-1α and HIF-1-regulated genes, we performed a highly sensitive, semi-quantitative reverse transcription-polymerase chain reaction (RT PCR), as described previously (Chun et al., J Cell Sci 2001 114:4051-4061). […] P-actin mRNA was measured as a PCR control. […] To assess whether the VEGF mRNA levels affected levels of VEGF protein secreted into the medium, we measured VEGF protein levels in Hep3B cell-conditioned medium. […] VEGF levels in the conditioned media were quantified by using the Quantikine human VEGF Immunoassay kit (R&D Systems, Minneapolis, Minn.) according to the manufacturer's recommended protocol. […]

[1] = tested on: NCI-H87 gastric carcinoma; assay: NCI-H87 gastric carcinoma xenograft tumor growth in nude mice; assay type: in vivo; conditions: YC-1 30 μg/g daily i.p. 2 weeks, P<0.01
Method: (§1) Male nude mice were injected subcutaneously in the flank with 5×10^6 viable Hep3B hepatoma (A), NCI-H87 gastric carcinoma (B), SiHa cervical carcinoma (C), SK-N-MC neuroblastoma (E), or Caki-I renal carcinoma (F) cells. […] Tumor size was measured over time. […] Differences between tumor sizes in the vehicle- and YC-1-treated groups for mice with Hep3B tumors were compared using ANOVA and Duncan's multiple range tests. * denotes P<0.001 relative to the control. Differences between tumor sizes in the vehicle and YC-1-treated groups for mice with other tumors (B-E) were compared using a Mann-Whitney U test. Each number beneath the error bar represents the P value of the difference relative to the control.
(§2) Male nude (BALB/cAnNC˜-nu/nu) mice were purchased from Charles River Japan Inc. (Shin-Yokohama, JAPAN). The animals were housed in a specific pathogen-free room under controlled temperature and humidity. All animal procedures were performed according to the established procedures of the Seoul National University Laboratory Animal Maintenance Manual. Eighty mice aged 7-8 weeks were injected with tumor cells for the xenograft experiments. […]
(§3) Tumors were measured every 2 or 3 days with calipers in two dimensions and the tumor volumes were calculated using the formula: Volume=axb2/2, where a is the width at the widest point of the tumor and h is the width perpendicular to a. […]

SiHa cervical carcinoma = SiHa cervical carcinoma xenograft tumor growth in nude mice; assay type: in vivo; conditions: YC-1 30 μg/g daily i.p. 2 weeks, P<0.01
Method: as §1, §2, §3

SK-N-MC neuroblastoma = SK-N-MC neuroblastoma xenograft tumor growth in nude mice; assay type: in vivo; conditions: YC-1 30 μg/g daily i.p. 2 weeks, P<0.01
Method: as §1, §2, §3

Caki-1 renal carcinoma = Caki-1 renal carcinoma xenograft tumor growth in nude mice; assay type: in vivo; conditions: YC-1 30 μg/g daily i.p. 2 weeks, P<0.01
Method: as §1, §2, §3

## OCc1ccc(-c2nn(Cc3ccccc3)c3ccccc23)o1 [YC-1, 3-(5′-hydroxymethyl-2′-furyl)-1-benzylindazole]
VEGF
  VEGF protein level in medium: decreased in a dose-dependent manner
[1]
  tumor size versus vehicle: statistically significantly smaller
SiHa cervical carcinoma
  tumor size versus vehicle: statistically significantly smaller
SK-N-MC neuroblastoma
  tumor size versus vehicle: statistically significantly smaller
Caki-1 renal carcinoma
  tumor size versus vehicle: statistically significantly smaller
